These compounds were tested on rabbit skeletal myofibrils (fast skeletal myofibrils) (assay: Activation of fast skeletal myofibrils (PUMA assay, PK/LDH-coupled ATPase at pCa25)). Conditions: AC1.4 determined according to the procedure of Example 39; reported as class symbols.
Type: biochemical
Summary of the method: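 ATPase activity of Triton-washed rabbit skeletal myofibrils, roughly 90% fast fibres, tracked by NADH loss at 340 nm through a PK/LDH-coupled ADP-regenerating system. Calcium set to 25% of maximal activity (pCa25), in PIPES 12 mM pH 6.8 with 2 mM MgCl2 and 1 mM DTT; AC1.4 reported.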
With `CC(C)(CNc1ccc(-c2cc(C(N)=O)c3[nH]ncc3c2)nn1)c1ccc(F)cc1` [5-(6-{[2-(4-fluorophenyl)-2-methylpropyl]amino}pyridazin-3-yl)-1H-indazole-7-carboxamide] the “Mean AC1.4” value was “B (B=1-10 uM)”. In the case of `CC(C)(CNc1ccc(-c2ccc(C#N)nc2)nn1)c1ccc(F)cc1` [5-(6-{[2-(4-fluorophenyl)-2-methylpropyl]amino}pyridazin-3-yl)pyridine-2-carbonitrile], the “Mean AC1.4” value is reported as “C (C=10-20 uM)”. For `CC(C)(CNc1ccc(-c2ccc(C(N)=O)nc2)nn1)c1ccc(F)cc1` [5-(6-{[2-(4-fluorophenyl)-2-methylpropyl]amino}pyridazin-3-yl)pyridine-2-carboxamide], the “Mean AC1.4” value was “B (B=1-10 uM)”. In the case of `CC(C)(CNc1ccc(-c2cncc(C#N)c2)nn1)c1ccc(F)cc1` [5-(6-{[2-(4-fluorophenyl)-2-methylpropyl]amino}pyridazin-3-yl)pyridine-3-carbonitrile], the “Mean AC1.4” value is reported as “B (B=1-10 uM)”. In the case of `CC(C)(CNc1ccc(-c2cncc(C(N)=O)c2)nn1)c1ccc(F)cc1` [5-(6-{[2-(4-fluorophenyl)-2-methylpropyl]amino}pyridazin-3-yl)pyridine-3-carboxamide], the “Mean AC1.4” value is reported as “B (B=1-10 uM)”.

Same assay, conditions: median AC1.4 class, procedure of Example 39
With `NC(=O)c1cc(-c2ccc(NC3(c4ncccc4F)CCC3)nn2)ccc1O` [5-(6-{[(3-fluoro(2-pyridyl))cyclobutyl]amino}pyr-idazin-3-yl)-2-hydroxybenzamide] the “Mean AC1.4” value was “B (B=1-10 uM)”. For `NC(=O)c1ccc(-c2ccc(NC3(c4ncccc4F)CCC3)nn2)s1` [5-(6-{[(3-fluoro-2-pyridyl)cyclobutyl]amino}pyr-idazin-3-yl)thiophene-2-carboxamide], the “Mean AC1.4” value was “B (B=1-10 uM)”. `O=C(O)c1ccc(-c2ccc(NC3(c4ncccc4F)CCC3)nn2)s1` [5-(6-{[(3-fluoro-2-pyridyl)cyclobutyl]amino}pyr-idazin-3-yl)thiophene-2-carboxylic acid] was tested, and the “Mean AC1.4” value was “D (D=>20 uM)”. `NC(=O)c1ccc(-c2ccc(NC3(c4ccc(F)cc4)CCC3)nn2)s1` [5-(6-{[(4-fluorophenyl)cyclobutyl]ami-no}pyridazin-3-yl)thiophene-2-carboxamide] was tested, and the “Mean AC1.4” value was “B (B=1-10 uM)”. In the case of `NC(=O)c1nnc(-c2ccc(NCC3(c4ncccc4F)CCC3)nn2)o1` [5-[6-({[(3-fluoro-2-pyridyl)cyclobutyl]methyl}ami-no)pyridazin-3-yl]-1,3,4-oxadiazole-2-carboxamide], the “Mean AC1.4” value is reported as “C (C=10-20 uM)”. In the case of `NC(=O)c1nnc(-c2ccc(NCC3(c4ncccc4F)CCC3)nn2)s1` [5-[6-({[(3-fluoro-2-pyridyl)cyclobutyl]methyl}ami-no)pyridazin-3-yl]-1,3,4-thiadiazole-2-carboxamide], the “Mean AC1.4” value is reported as “B (B=1-10 uM)”. In the case of `NC(=O)c1ncc(-c2ccc(NCC3(c4ncccc4F)CCC3)nn2)s1` [5-[6-({[(3-fluoro-2-pyridyl)cyclobutyl]methyl}ami-no)pyridazin-3-yl]-1,3-thiazole-2-carboxamide], the “Mean AC1.4” value is reported as “B (B=1-10 uM)”. In the case of `O=c1[nH][nH]c2nc(-c3ccc(NCC4(c5ncccc5F)CCC4)nn3)sc12` [5-[6-({[(3-fluoro-2-pyridyl)cyclobutyl]methyl}ami-no)pyridazin-3-yl]-3-pyrazolino[3,4-d]1,3-thiazol-3-one], the “Mean AC1.4” value is reported as “D (D=>20 uM)”. For `NC(=O)c1nnc(-c2ccc(NCC3(c4ncccc4F)CCC3)nn2)[nH]1` [5-[6-({[(3-fluoro-2-pyridyl)cyclobutyl]methyl}ami-no)pyridazin-3-yl]-4H-1,2,4-triazole-3-carboxamide], the “Mean AC1.4” value was “C (C=10-20 uM)”. `N#Cc1ccc(-c2ccc(NCC3(c4ncccc4F)CCC3)nn2)s1` [5-[6-({[(3-fluoro-2-pyridyl)cyclobutyl]methyl}ami-no)pyridazin-3-yl]thiophene-2-carbonitrile] was tested, and the “Mean AC1.4” value was “B (B=1-10 uM)”. For `NC(=O)c1ccc(-c2ccc(NCC3(c4ncccc4F)CCC3)nn2)s1` [5-[6-({[(3-fluoro-2-pyridyl)cyclobutyl]methyl}ami-no)pyridazin-3-yl]thiophene-2-carboxamide], the “Mean AC1.4” value was “A (A=<1 uM)”. In the case of `O=C(O)c1ccc(-c2ccc(NCC3(c4ncccc4F)CCC3)nn2)s1` [5-[6-({[(3-fluoro-2-pyridyl)cyclobutyl]methyl}ami-no)pyridazin-3-yl]thiophene-2-carboxylic acid], the “Mean AC1.4” value is reported as “B (B=1-10 uM)”.

Same assay, conditions: median AC1.4 reported as class; procedure of Example 39
`NC(=O)c1cc(-c2ccc(NC[C@]3(c4ncccc4F)C[C@H](F)C3)nn2)ccc1O` [5-[6-({[3-fluoro-1-(3-fluoro(2-pyridyl))cyclobutyl]methyl}ami-no)pyridazin-3-yl]-2-hydroxybenzamide] was tested, and the “Mean AC1.4” value was “A (A=<1 uM)”. With `O=C(O)c1cc(-c2ccc(NC[C@]3(c4ncccc4F)C[C@H](F)C3)nn2)ccc1O` [5-[6-({[3-fluoro-1-(3-fluoro(2-pyridyl))cyclobutyl]methyl}ami-no)pyridazin-3-yl]-2-hydroxybenzoic acid] the “Mean AC1.4” value was “B (B=1-10 uM)”. `COc1ccc(-c2ccc(NC[C@]3(c4ncccc4F)C[C@H](F)C3)nn2)cc1C(N)=O` [5-[6-({[3-fluoro-1-(3-fluoro(2-pyridyl))cyclobutyl]methyl}ami-no)pyridazin-3-yl]-2-methoxybenzamide] was tested, and the “Mean AC1.4” value was “B (B=1-10 uM)”. With `NC(=O)c1cc2cc(-c3ccc(NC[C@]4(c5ncccc5F)C[C@H](F)C4)nn3)ccc2[nH]1` [5-[6-({[3-fluoro-1-(3-fluoro(2-pyridyl))cyclobutyl]methyl}ami-no)pyridazin-3-yl]indole-2-carboxamide] the “Mean AC1.4” value was “A (A=<1 uM)”. In the case of `O=C(O)c1cc2cc(-c3ccc(NC[C@]4(c5ncccc5F)C[C@H](F)C4)nn3)ccc2[nH]1` [5-[6-({[3-fluoro-1-(3-fluoro(2-pyridyl))cyclobutyl]methyl}ami-no)pyridazin-3-yl]indole-2-carboxylic acid], the “Mean AC1.4” value is reported as “B (B=1-10 uM)”. For `O=C1NCc2cc(-c3ccc(NC[C@]4(c5ncccc5F)C[C@H](F)C4)nn3)ccc21` [5-[6-({[3-fluoro-1-(3-fluoro(2-pyridyl))cyclobutyl]methyl}ami-no)pyridazin-3-yl]isoindolin-1-one], the “Mean AC1.4” value was “C (C=10-20 uM)”. In the case of `COc1ncc(-c2ccc(NCC3(c4ncccc4F)CCC3)nn2)cc1C#N` [5-[6-({[(3-fluoro(2-pyridyl))cyclobutyl]methyl}ami-no)pyridazin-3-yl]-2-methoxypyridine-3-carbonitrile], the “Mean AC1.4” value is reported as “D (D=>20 uM)”. With `COc1ncc(-c2ccc(NCC3(c4ncccc4F)CCC3)nn2)cc1C(N)=O` [5-[6-({[(3-fluoro(2-pyridyl))cyclobutyl]methyl}ami-no)pyridazin-3-yl]-2-methoxypyridine-3-carboxamide] the “Mean AC1.4” value was “C (C=10-20 uM)”. For `NC(=O)c1cc(-c2ccc(NCC3(c4ncccc4F)CCC3)nn2)c[nH]c1=O` [5-[6-({[(3-fluoro(2-pyridyl))cyclobutyl]methyl}ami-no)pyridazin-3-yl]-2-oxohydropyridine-3-carboxamide], the “Mean AC1.4” value was “C (C=10-20 uM)”. With `O=C(O)c1cc(-c2ccc(NCC3(c4ncccc4F)CCC3)nn2)c[nH]c1=O` [5-[6-({[(3-fluoro(2-pyridyl))cyclobutyl]methyl}ami-no)pyridazin-3-yl]-2-oxohydropyridine-3-carboxylic acid] the “Mean AC1.4” value was “D (D=>20 uM)”. `O=c1cc(-c2ccc(NCC3(c4ncccc4F)CCC3)nn2)nc2cc[nH]n12` [5-[6-({[(3-fluoro-2-pyridyl)cyclobutyl]methyl}ami-no)pyridazin-3-yl]-8-hydro-3-pyrazolino[1,5-a]pyrimidin-7-one] was tested, and the “Mean AC1.4” value was “B (B=1-10 uM)”.
